Tests used:
bamyardgrass = experiment: Test B flood test barnyardgrass; type: in vivo, Echinochloa crus-galli
Summary of the method: (§1)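 Plants were grown to the 2-leaf stage before treatment with test chemical, then held in a greenhouse for twelve to sixteen days. Injury was visually rated against untreated controls on a 0–10 scale, where 0 is no effect and 10 is complete control.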

wheat = experiment: Test B pre/postemergence wheat; type: in vivo, Triticum aestivum; conditions: for Plant response rating, Wheat: scale of 0 to 10 where 0 is no effect and 10 is complete control
Summary of the method: (§2)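 Herbicidal effect was estimated by eye on a ten-point control scale after plants spent twelve to sixteen days in a greenhouse following soil or foliar treatment. Foliar sprays targeted plants at one to four leaves; all doses were formulated in a non-phytotoxic solvent with surfactant.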

wild oat = experiment: Test B pre/postemergence wild oat; type: in vivo, Avena fatua; conditions: for Plant response rating, Wild oats: scale of 0 to 10 where 0 is no effect and 10 is complete control
Summary of the method: as §2

corn = experiment: Test B pre/postemergence corn; type: in vivo, Zea mays
Summary of the method: as §2

morningglory = experiment: Test B pre/postemergence morningglory; type: in vivo, Ipomoea hederacea; conditions: for Plant response rating, Morningglory: scale of 0 to 10 where 0 is no effect and 10 is complete control
Summary of the method: as §2

giant foxtail = experiment: Test B pre/postemergence giant foxtail; type: in vivo, Setaria faberii
Summary of the method: as §2

velvetleaf = experiment: Test B pre/postemergence velvetleaf; type: in vivo, Abutilon theophrasti; conditions: for Plant response rating, Velvetleaf: scale of 0 to 10 where 0 is no effect and 10 is complete control
Summary of the method: as §2

bedstraw = experiment: Test B pre/postemergence bedstraw; type: in vivo, Galium aparine; conditions: Preemergence, scale of 0 to 10 where 0 is no effect and 10 is complete control
Summary of the method: as §2

cocklebur = experiment: Test B pre/postemergence cocklebur; type: in vivo, Xanthium strumarium
Summary of the method: as §2

blackgrass = experiment: Test B pre/postemergence blackgrass; type: in vivo, Alopecurus myosuroides
Summary of the method: as §2

duck salad = experiment: Test B flood test duck salad; type: in vivo, Heteranthera limosa
Summary of the method: as §1

surinam grass = experiment: Test B pre/postemergence surinam grass; type: in vivo, Brachiaria decumbens
Summary of the method: as §2

smallflower flatsedge = experiment: Test B flood test smallflower flatsedge; type: in vivo, Cyperus difformis
Summary of the method: as §1

crabgrass = experiment: Test B pre/postemergence crabgrass; type: in vivo, Digitaria sanguinalis
Summary of the method: as §2

purple nutsedge = experiment: Test B pre/postemergence purple nutsedge; type: in vivo, Cyperus rotundus; conditions: for Plant response rating, Nutsedge: scale of 0 to 10 where 0 is no effect and 10 is complete control
Summary of the method: as §2

rice = experiment: Test B flood test rice; type: in vivo, Oryza sativa
Summary of the method: as §1

[1] = Rate 62 g/ha, flood test species, Pre-emergence, visual evaluation after twelve to sixteen days
[2] = Rate 125 g/ha, under heading Pre-emergence, flood test species, visual evaluation after twelve to sixteen days
[3] = Rate 250 g/ha, Pre-emergence (flood test species), scale 0 to 10, 0 is no effect, 10 is complete control
[4] = Rate 500 g/ha, Pre-emergence, flood test species, scale 0 to 10 (0 no effect, 10 complete control)
[5] = Postemergence, Rate 250 g/ha, scale 0 to 10
[6] = Preemergence, Rate 250 g/ha, scale 0 to 10, 0 is no effect, 10 is complete control
[7] = Preemergence, Rate 500 g/ha, scale 0 to 10, 0 is no effect, 10 is complete control
[8] = Rate 62 g/ha, Postemergence, scale 0 to 10, 0 no effect, 10 complete control
[9] = Rate 125 g/ha, Postemergence, scale 0 to 10, 0 is no effect, 10 is complete control
[10] = Postemergence, Rate 500 g/ha, scale of 0 to 10 where 0 is no effect and 10 is complete control
[11] = Preemergence, Rate 62 g/ha, scale of 0 to 10 where 0 is no effect and 10 is complete control
[12] = Preemergence, Rate 125 g/ha, scale of 0 to 10 where 0 is no effect and 10 is complete control

CC(C)N(C(=O)n1oc(=O)n(CC#N)c1=O)c1ccc(Cl)cc1 [Compound 476]
Plant response rating, Barnyardgrass (0 to 10 scale, 0 is no effect, 10 is complete control) (bamyardgrass; [1]): 0 | Barnyardgrass plant response rating (0 to 10 scale, 0 is no effect, 10 is complete control) (bamyardgrass; [2]): 0 | Barnyardgrass plant response rating (bamyardgrass; [3]): 0 | Barnyardgrass plant response rating (bamyardgrass; [4]): 0 | Wheat plant response rating (wheat; [5]): 0 | Plant response rating, Wheat (wheat; Preemergence, Rate 62 g/ha): 0 | Plant response rating, Wheat (wheat; Preemergence, Rate 125 g/ha): 0 | Wheat plant response rating (wheat; [6]): 0 | Wheat plant response rating (wheat; [7]): 0 | Wheat plant response rating (wheat; [8]): 0 | Wheat plant response rating (wheat; [9]): 0 | Wild oats plant response rating (wild oat; [5]): 0 | Plant response rating, Wild oats (wild oat; Preemergence, Rate 62 g/ha): 0 | Plant response rating, Wild oats (wild oat; Preemergence, Rate 125 g/ha): 0 | Wild oats plant response rating (wild oat; [6]): 0 | Wild oats plant response rating (wild oat; [7]): 0 | Wild oats plant response rating (wild oat; [8]): 0 | Wild oats plant response rating (wild oat; [9]): 0 | Corn plant response rating (corn; [5]): 0 | Corn plant response rating (corn; [10]): 0 | Plant response rating, Corn (corn; [11]): 0 | Plant response rating, Corn (corn; [12]): 0 | Corn plant response rating (corn; [6]): 0 | Corn plant response rating (corn; [7]): 0 | Corn plant response rating (corn; [8]): 0 | Corn plant response rating (corn; [9]): 0 | Morningglory plant response rating (morningglory; [5]): 0 | Plant response rating, Morningglory (morningglory; Preemergence, Rate 62 g/ha): 0 | Plant response rating, Morningglory (morningglory; Preemergence, Rate 125 g/ha): 0 | Morningglory plant response rating (morningglory; [6]): 0 | Morningglory plant response rating (morningglory; [7]): 0 | Morningglory plant response rating (morningglory; [8]): 0 | Morningglory plant response rating (morningglory; [9]): 0 | Giant foxtail plant response rating (giant foxtail; [5]): 0 | Giant foxtail plant response rating (giant foxtail; [10]): 0 | Plant response rating, Giant foxtail (giant foxtail; [11]): 0 | Plant response rating, Giant foxtail (giant foxtail; [12]): 0 | Giant foxtail plant response rating (giant foxtail; [6]): 0 | Giant foxtail plant response rating (giant foxtail; [7]): 0 | Giant foxtail plant response rating (giant foxtail; [8]): 0 | Giant foxtail plant response rating (giant foxtail; [9]): 0 | Velvetleaf plant response rating (velvetleaf; [5]): 2 | Plant response rating, Velvetleaf (velvetleaf; Preemergence, Rate 62 g/ha): 0 | Plant response rating, Velvetleaf (velvetleaf; Preemergence, Rate 125 g/ha): 0 | Velvetleaf plant response rating (velvetleaf; [6]): 0 | Velvetleaf plant response rating (velvetleaf; [7]): 0 | Velvetleaf plant response rating (velvetleaf; [8]): 0 | Velvetleaf plant response rating (velvetleaf; [9]): 1 | Plant response rating, Bedstraw (bedstraw; Rate 62 g/ha): 0 | Plant response rating, Bedstraw (bedstraw; Rate 125 g/ha): 0 | Cocklebur plant response rating (cocklebur; [5]): 0 | Cocklebur plant response rating (cocklebur; [10]): 0 | Plant response rating, Cocklebur (cocklebur; [11]): 0 | Plant response rating, Cocklebur (cocklebur; [12]): 0 | Cocklebur plant response rating (cocklebur; [6]): 0 | Cocklebur plant response rating (cocklebur; [7]): 0 | Cocklebur plant response rating (cocklebur; [8]): 0 | Cocklebur plant response rating (cocklebur; [9]): 0 | Blackgrass plant response rating (blackgrass; [5]): 0 | Blackgrass plant response rating (blackgrass; [10]): 2 | Plant response rating, Blackgrass (blackgrass; [11]): 0 | Plant response rating, Blackgrass (blackgrass; [12]): 0 | Blackgrass plant response rating (blackgrass; [6]): 0 | Blackgrass plant response rating (blackgrass; [7]): 0 | Blackgrass plant response rating (blackgrass; [8]): 0 | Blackgrass plant response rating (blackgrass; [9]): 0 | Plant response rating, Ducksalad (0 to 10 scale, 0 is no effect, 10 is complete control) (duck salad; [1]): 0 | Ducksalad plant response rating (0 to 10 scale, 0 is no effect, 10 is complete control) (duck salad; [2]): 0 | Ducksalad plant response rating (duck salad; [3]): 0 | Ducksalad plant response rating (duck salad; [4]): 0 | B. signalgrass plant response rating (surinam grass; Postemergence, Rate 250 g/ha, scale 0 to 10, 0 no effect, 10 complete control): 0 | B. signalgrass plant response rating (surinam grass; [10]): 0 | Plant response rating, B. signalgrass (surinam grass; [11]): 0 | Plant response rating, B. signalgrass (surinam grass; [12]): 0 | B. signalgrass plant response rating (surinam grass; [6]): 0 | B. signalgrass plant response rating (surinam grass; [7]): 0 | B. signalgrass plant response rating (surinam grass; [8]): 0 | B. signalgrass plant response rating (surinam grass; [9]): 0 | Plant response rating, S. Flatsedge (0 to 10 scale, 0 is no effect, 10 is complete control) (smallflower flatsedge; [1]): 0 | S. Flatsedge plant response rating (0 to 10 scale, 0 is no effect, 10 is complete control) (smallflower flatsedge; [2]): 0 | S. Flatsedge plant response rating (smallflower flatsedge; [3]): 0 | S. Flatsedge plant response rating (smallflower flatsedge; [4]): 0 | Crabgrass plant response rating (crabgrass; [5]): 0 | Crabgrass plant response rating (crabgrass; [10]): 0 | Plant response rating, Crabgrass (crabgrass; [11]): 0 | Plant response rating, Crabgrass (crabgrass; [12]): 0 | Crabgrass plant response rating (crabgrass; [6]): 0 | Crabgrass plant response rating (crabgrass; [7]): 0 | Crabgrass plant response rating (crabgrass; [8]): 0 | Crabgrass plant response rating (crabgrass; [9]): 0 | Nutsedge plant response rating (purple nutsedge; [5]): 0 | Plant response rating, Nutsedge (purple nutsedge; Preemergence, Rate 62 g/ha): 0 | Plant response rating, Nutsedge (purple nutsedge; Preemergence, Rate 125 g/ha): 0 | Nutsedge plant response rating (purple nutsedge; [6]): 0 | Nutsedge plant response rating (purple nutsedge; [7]): 0 | Nutsedge plant response rating (purple nutsedge; [8]): 0 | Nutsedge plant response rating (purple nutsedge; [9]): 0 | Plant response rating, Rice (0 to 10 scale, 0 is no effect, 10 is complete control) (rice; [1]): 0 | Rice plant response rating (0 to 10 scale, 0 is no effect, 10 is complete control) (rice; [2]): 0 | Rice plant response rating (rice; [3]): 0 | Rice plant response rating (rice; [4]): 0

Source: patent US6737383B1, “Herbicidal oxadiazolidines” (priority 1999, dated 2004)
